Experimental data taken from patent US6635234B1, “Preparation and use of radium-223 to target calcified tissues for pain palliation, bone cancer therapy, and bone surface conditioning” (Anticancer Therapeutic Inventions AS, priority 1999, dated 2003).
Several values for one entry are separate records, joined by “and”; a condition that tells them apart may be missing. Equal entries are not always repeated.

Experiments:
[1] = tested on: MT-1 human breast cancer cells; settings: treatment seven days after tumour cell inoculation; cited from earlier work
[2] = Localization Index (211Bi vs 223Ra retention) in femur by gamma spectroscopy; format: in vivo, mice; settings: average
Method: To examine if there was a difference in radioisotope retention between radium-223 and bismuth-211 in bone samples, gamma spectroscopic data for bone versus a standard solution with ^223Ra and daughter radionuclides in equilibrium was studied.
Methods: Gamma spectroscopy with a germanium detector (Canberra, Meriden, Conn., USA) was performed on samples of femur from mice immediately after sacrificing and dissecting the animals. Samples of a standard solution of ^223Ra and daughter radionuclides in equilibrium were studied. The distinct gamma peaks at 351.0 keV (^211Bi) and 154.2 keV (^223Ra) were used. A Localization Index (LI) was determined as follows:
E.g., BBi−^211Bi count rate in bone; SRa−^223Ra count rate in standard
Gamma spectra from five samples from the 6 h group and the 3 days group respectively were compared, to five and three samples from the standard solution respectively, using Student t-test for data columns.

[3] = Biodistribution of radium-223 in Balb/C mice; format: in vivo; settings: for % of injected dose per gram, femur: 9 kBq in isotonic saline
Method: (§1) Methods: Young male Balb/C mice with a body weight of 19-21 g were injected with 9 kBq of ^223Ra in 150 μl of isotonic saline. Groups of five animals were sacrificed and dissected at 6 h and 3 days after injection. Sample weight was measured and samples were counted using (A) a “well type” NaI scintillation crystal (Harshaw Chemie BV, De Meern, Holland) combined with a Scaler Timer ST7 (NE Technology Ltd, Reading, UK) digital unit, (B) a Beckman LS 6500 (Beckman Instruments Inc. Fullerton, Calif., USA). Relative abundances of radionuclides were studied in blood, liver, kidney, and in standard samples with mother/daughter in equilibrium, using a Ge-detector (Canberra, Meriden, Conn., USA) combined with an amplifier and bias supply from EG&G Ortec (Oak Ridge, Tenn., USA).

[4] = Gamma spectroscopy of the 211Bi:223Ra ratio in tissues versus a standard solution; format: in vivo, Balb/C mice
Method: as §1
The ratio of ^211Bi: ^223Ra was in the spleen at the 6 hour point on average 54% compared to a standard solution. In liver and kidneys on the other hand, the ^211Bi: ^223Ra ratios in the samples were on the average 256 and 207% of the standards respectively. […] Also the ^211Bi activity in soft tissues was in general very low compared to bone activity of this nuclide. The ^211Bi in the soft tissues may have been generated from ^223Ra present in soft tissues.

[5] = Release of daughter isotopes from fragmented femur washed with PBS; format: in vivo, mice
Method: To study potential release of daughter isotopes after ^223Ra was incorporated in bone, due to either nuclear recoil or diffusion processes, femurs from five animals killed 6 h, and 5 animals killed 3 days after injection were examined.
Methods: The bones were cleaved longitudinally, to expose the red marrow (spongious) areas, and thereafter cut into small fragments of less than 3 mg. Thereafter the samples were washed with Dulbeccos PBS (Sigma-Aldrich CO. LTD., Irvine, UK) using centrifugation. The supernatant was removed, mixed with scintillation liquid (Insta-Gel 11 plus, Packard BioScience BV, Groningen, The Netherlands) and counted on a scintillation counter (Beckman Instruments Inc. Fullerton, Calif., USA). After one day sample counting was repeated. A difference in counts after correcting for ^223Ra decay between the two measurements was used as indication of release of daughter nuclide(s) from bone matrix.

[6] = tested on: MT-1 human breast cancer cells; test: MT-1/nude rat model of skeletal metastases; format: in vivo, nude rats
Text: It has been developed animal models with experimental metastasis pattern resembling those frequently observed in human patients (Engebraaten and Fodstad, 1999). One of these models consists of MT-1 cells injected intracardially into nude rats and is characterized by the consistent development of hind leg paralysis in the animals.
Method: The therapeutic potential of radium-223 was studied in the MT-1/nude rat model where animals were inoculated with 1×10^6 MT-1 human breast cancer cells by injection into the left ventricle of the heart as described (Engebraaten and Fodstad,. 1999). These animals usually develop paralysis caused by growth of tumours in the spine. Groups of 4 and 5 animals each were then treated seven days later by receiving an intravenous injection of 200 μl of a vehicle solution without or with 10 kBq of radium-223 according to the invention.

[7] = bone samples; after radium-226 had been administered to dogs; cited from earlier work

N.N.[Cl][Pt][Cl] [cisplatin]
Effect on survival [1]: did not improve survival

COc1cccc2c1C(=O)c1c(O)c3c(c(O)c1C2=O)C[C@@](O)(C(=O)CO)C[C@@H]3O[C@H]1C[C@H](N)[C@H](O)[C@H](C)O1 [doxorubicin]
Effect on survival [1]: did not improve survival

[223Ra] [radium-223]
Localization Index LI=(BBi/SBi)/(BRa/SRa) ([2]; 6 h point, P=0.059): 0.85
Localization Index LI=(BBi/SBi)/(BRa/SRa) ([2]; 3 day point, P=0.749): 0.97
Femur to blood ratio ([3]; 6 h after injection): 129
Femur to spleen ratio ([3]; 6 h after injection): 6.4
Concentration in bone compared to soft tissues ([3]; 6 h and 3 days): selectively concentrated in bone
Femur to blood ratio ([3]; 3 days after injection): 691
Femur to spleen ratio ([3]; 3 days after injection): 23.7
% of injected dose per gram, blood ([3]; 6 hours): 0.20 ± 0.23 % of injected dose per gram
% of injected dose per gram, blood ([3]; 3 days): 0.05 ± 0.10 % of injected dose per gram
% of injected dose per gram, brain ([3]; 6 hours): 0.04 ± 0.01 % of injected dose per gram
% of injected dose per gram, brain ([3]; 3 days): 0.12 ± 0.12 % of injected dose per gram
% of injected dose per gram, femur ([3]; 6 hours after injection): 25.86 ± 1.99 % of injected dose per gram
% of injected dose per gram, femur ([3]; 3 days after injection): 34.55 ± 7.87 % of injected dose per gram
% of injected dose per gram, heart ([3]; 6 hours): 0.10 ± 0.10 % of injected dose per gram
% of injected dose per gram, heart ([3]; 3 days): 0.06 ± 0.07 % of injected dose per gram
% of injected dose per gram, kidney ([3]; 6 hours): 4.04 ± 0.33 % of injected dose per gram
% of injected dose per gram, kidney ([3]; 3 days): 0.38 ± 0.08 % of injected dose per gram
% of injected dose per gram, large intestine ([3]; 6 hours): 2.30 ± 0.60 % of injected dose per gram
% of injected dose per gram, large intestine ([3]; 3 days): 0.13 ± 0.02 % of injected dose per gram
% of injected dose per gram, liver ([3]; 6 hours): 0.89 ± 0.18 % of injected dose per gram
% of injected dose per gram, liver ([3]; 3 days): 0.22 ± 0.32 % of injected dose per gram
% of injected dose per gram, lung ([3]; 6 hours): 0.59 ± 0.56 % of injected dose per gram
% of injected dose per gram, lung ([3]; 3 days): 0.06 ± 0.07 % of injected dose per gram
% of injected dose per gram, muscle ([3]; 6 hours): 0.72 ± 0.39 % of injected dose per gram
% of injected dose per gram, muscle ([3]; 3 days): 0.30 ± 0.16 % of injected dose per gram
% of injected dose per gram, small intestine ([3]; 6 hours): 0.79 ± 0.26 % of injected dose per gram
% of injected dose per gram, small intestine ([3]; 3 days): 0.04 ± 0.03 % of injected dose per gram
% of injected dose per gram, spleen ([3]; 6 hours): 4.06 ± 1.4 % of injected dose per gram
% of injected dose per gram, spleen ([3]; 3 days): 1.46 ± 0.54 % of injected dose per gram
Difference in relative distribution of radium-223 and its daughters (abundance of 211Bi) ([4]; bone and most soft tissues, gamma spectroscopy): no significant difference
Ratio of 211Bi:223Ra, % of the standards ([4]; kidneys, average): 207%
Ratio of 211Bi:223Ra, % of the standards ([4]; liver, average): 256%
Ratio of 211Bi:223Ra compared to a standard solution ([4]; spleen, 6 hour point, average): 54%
Activity dissolved in PBS during washing, compared to the total activity in bone ([5]; animals killed after 6 hours, average): 1.8%
Translocation of daughter isotopes from bone ([5]; animals killed after 6 hours, probably): less than 2%
Activity of washing solutions counted again, of the bone sample ([5]; animals killed after 6 hours, recounted after 12 h, average): 0.2%
Counts in the washing solution compared to the background ([5]; animals killed after 3 days): no significant counts
Translocation, below detection limit, of the total bone radioactivity ([5]; animals killed after 3 days, estimated detection limit): less than 1%
Anti-tumour effect in animals with skeletal metastases ([6]; 10 kBq i.v.): significant anti-tumour effect
Time to paralysis after tumour cell inoculation (individual animals) ([6]; 10 kBq i.v. seven days after inoculation, group of five animals, listed as 223Ra): 26 days and 40 days and 64 days
Survival without signs of paralysis, two remaining animals (follow-up period) ([6]; 10 kBq i.v. seven days after inoculation, two of five animals): ≥ 90 days

[226Ra] [radium-226]
Radon-222 escaped from the bone [7]: 89.5-94.25%
